Data taken from patent publication US20100285145A1, “GPR 119 MODULATORS” (PFIZER INC, priority 2009, published 2010).
“And” between values parts separate entries of the source, which are not always exact repeats. Equal entries are not always repeated.

How the values were obtained:
human GPR119 [1] = target: T1, human GPR119 (Homo sapiens, UniProt Q8TDV5); test: β-Arrestin PathHunter assay (U2OS hGPR119 β-arrestin cells); assay type: cell-based; details: for EC50: read-out: Human B-arrestin Functional EC50; for Emax: U2OS, read-out: Intrinsic Activity (Human B-arrestin)
T1 sequence (Q8TDV5 1-335): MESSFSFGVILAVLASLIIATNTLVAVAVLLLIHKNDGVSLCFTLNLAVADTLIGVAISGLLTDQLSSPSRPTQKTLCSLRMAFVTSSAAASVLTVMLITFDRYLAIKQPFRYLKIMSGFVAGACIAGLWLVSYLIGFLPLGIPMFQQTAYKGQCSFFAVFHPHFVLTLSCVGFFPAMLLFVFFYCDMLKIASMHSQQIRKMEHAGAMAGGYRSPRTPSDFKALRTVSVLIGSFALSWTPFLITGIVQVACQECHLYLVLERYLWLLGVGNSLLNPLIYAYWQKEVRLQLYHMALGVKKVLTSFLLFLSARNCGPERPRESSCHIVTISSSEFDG
Protocol: GPR119 agonist activity was also determined with a cell-based assay utilizing DiscoverX PathHunter β-arrestin cell assay technology and their U2OS hGPR119 β-arrestin cell line (DiscoverX Cat # 93-0356C3). In this assay, agonist activation is determined by measuring agonist-induced interaction of β-arrestin with activated GPR119. A small, 42 amino acid enzyme fragment, called ProLink was appended to the C-terminus of GPR119. Arrestin was fused to the larger enzyme fragment, termed EA (Enzyme Acceptor). Activation of GPR119 stimulates binding of arrestin and forces the complementation of the two enzyme fragments, resulting in formation of a functional β-galactosidase enzyme capable of hydrolyzing substrate and generating a chemiluminescent signal.
Specifically, U2OS hGPR119 β-arrestin cells (DiscoverX 1×10^7/mL) are removed from cryopreservation and diluted in growth medium (Minimum essential medium (MEM; Gibco Cat # 11095-080), 10% heat inactivated fetal bovine serum (HIFBS; Sigma Cat # F4135-100), […] sodium pyruvate (Sigma Cat # S8636), 500 microg/mL G418 (Sigma Cat # G8168) and 250 microg/mL Hygromycin B (Invitrogen Cat # 10687-010). The cell concentration was adjusted to 1.66×10^5 cells/mL and 30 mLs of this suspension was added to a T-175 flask and incubated at 37 degrees Celsius in a humidified environment in 5% carbon dioxide. After 24 hours, the cells were removed from the T-175 flask with enzyme-free cell dissociation buffer (Gibco cat #13151-014), centrifuged at 800×g and then re-suspended in plating medium (Opti-MEM I (Invitrogen/BRL Cat # 31985-070) and 2% charcoal dextran treated fetal bovine serum (CD serum; HyClone Cat # SH30068.03).
The cell concentration was adjusted to 2.5×10^5 cells/mL with plating medium and 20 microliters of this cell suspension (5000 cells) was added to each well of a white Greiner 384-well low volume assay plate (VWR cat #82051-458) and the plates were incubated at 37 degrees Celsius in a humidified environment in 5% carbon dioxide.
After 16 hours (overnight) the assay plates were removed from the incubator and varying concentrations of each compound to be tested (diluted in assay buffer (1×HBSS+CaCl2+MgCl2 (Gibco Cat # 14025-092), 20 mM HEPES pH 7.0 (Gibco Cat # 15630-080) and 0.1% BSA (Sigma Cat # A9576)) were added to the assay plate wells in a volume of 5 microliters (final DMSO concentration was 0.5%). After a 90 minute incubation at 37 degrees Celsius in a humidified environment in 5% carbon dioxide, 12 microliters of Galacton Star β-galactosidase substrate (PathHunter Detection Kit (DiscoveRx Cat # 93-0001); prepared as described in the manufacturers assay protocol) was added to each well of the assay plate. The plates were incubated at room temperature and after 60 minutes, changes in the luminescence were read with an Envision 2104 multilabel plate reader at 0.1 seconds per well. EC50 determinations were made from an agonist-response curves analyzed with a curve fitting program using a 4-parameter logistic dose response equation.

human GPR119 [2] = target: T1, human GPR119; test: cAMP HTRF functional assay (hGPR119 HEK-CRE beta-lactamase cells); assay type: cell-based; design: host or cells: HEK293-CRE beta-lactamase; details: for Emax: read-out: Intrinsic Activity (Human cAMP)
In short: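 hGPR119 HEK-CRE cells (5000/well), cultured overnight, then treated 30 min at room temperature with compound plus 400 microM IBMX (0.58% DMSO). cAMP measured by competitive HTRF immunoassay after 60 min lysis/detection, converted to nM via standard curve; EC50 from 4-parameter logistic fit.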

[3] = U2OS hGPR119 β-arrestin cells, 90 min, each line a separate determination
[4] = percent of maximal activity relative to standard GPR119 agonist at 10 micromolar
[5] = HTRF cAMP, 30 min, 400 microM IBMX, each line a separate determination
[6] = marked **: curve was extrapolated to 100%
[7] = curve was extrapolated to 100% to calculate an EC50

| Structure (SMILES) | EC50 (human GPR119 [1]; [3]) | Intrinsic Activity (Human B-arrestin) (human GPR119 [1]; [4]) | Intrinsic Activity (Human cAMP) (human GPR119 [2]; [4]) | Emax (human GPR119 [1]; [4]) | EC50 (human GPR119 [2]; [5]) | Emax (human GPR119 [2]; [4]) | Emax (human GPR119 [1]; [6]) | EC50 (human GPR119 [1]; [7]) | EC50 (human GPR119 [2]; [7]) | Intrinsic Activity (Human cAMP) (human GPR119 [2]; [6]) | Emax (human GPR119 [2]; [6]) |
| --- | --- | --- | --- | --- | --- | --- | --- | --- | --- | --- | --- |
| Cc1c(O[C@H]2[C@@H]3COC[C@H]2CN(C(=O)OC2(C)CC2)C3)ncnc1N1CCc2ncccc21 [Example 25, 1-Methylcyclopropyl (9-anti)-9-{[6-(2,3-dihydro-1H-pyrrolo[3,2-b]pyridin-1-yl)-5-methylpyrimidin-4-yl]oxy}-3-oxa-7-azabicyclo[3.3.1]nonane-7-carboxylate] | 14.7 nM and 12.4 nM and 19.3 nM and 40.7 nM and 18.2 nM | 58.7% and 81% and 78.6% and 68.6% and 74.5% | 52.9% and 68.3% and 67.7% and 74.3% and 62.9% |  |  |  |  |  |  |  |  |
| CC(C)OC(=O)N1CCC(Oc2ncnc(N3CCc4cc(S(C)(=O)=O)ccc43)c2C#N)CC1 [Example 6, Isopropyl 4-({5-cyano-6-[5-(methylsulfonyl)-2,3-dihydro-1H-indol-1-yl]pyrimidin-4-yl}oxy)piperidine-1-carboxylate] | 4.76 nM |  | 94.2% | 70% | 84.5 nM and 116 nM | 95.3% |  |  |  |  |  |
| CC(C)OC(=O)N1CCC(Oc2cc(N3CCc4cc(C#N)ccc43)ncn2)CC1 [Example 10, Isopropyl 4-{[6-(5-cyano-2,3-dihydro-1H-indol-1-yl)pyrimidin-4-yl]oxy}piperidine-1-carboxylate] |  |  | 105% |  | 13.8 nM and 32.9 nM | 104% |  |  |  |  |  |
| CC(C)OC(=O)N1CCC(Oc2cc(N3CCc4ncccc43)ncn2)CC1 [Example 12, Isopropyl 4-{[6-(2,3-dihydro-1H-pyrrolo[3,2-b]pyridin-1-yl)pyrimidin-4-yl]oxy}piperidine-1-carboxylate] |  |  | 56.5% (2×) and 53.6% and 44% |  | 784 nM and 1140 nM and 1180 nM and 331 nM and 792 nM | 56% | 100% | 2570 nM | 8150 nM and 9620 nM and 8350 nM and 9480 nM | 100** % | 100% |
| CC(C)OC(=O)N1C[C@H]2COC[C@@H](C1)[C@H]2Oc1cc(N2CCc3cc(S(C)(=O)=O)ccc32)ncn1 [Example 1, Isopropyl 9-anti-({6-[5-(methylsulfonyl)-2,3-dihydro-1H-indol-1-yl]pyrimidin-4-yl}oxy)-3-oxa-7-azabicyclo[3.3.1]nonane-7-carboxylate] |  |  | 94% and 87.9% |  | 339 nM and 567 nM and 1280 nM | 96.5% |  |  |  |  |  |
| Cc1c(OC2CCN(C(=O)OC(C)C)CC2)ncnc1N1CCc2ncccc21 [Example 13, Isopropyl 4-{[6-(2,3-dihydro-1H-pyrrolo[3,2-b]pyridin-1-yl)-5-methylpyrimidin-4-yl]oxy}-piperidine-1-carboxylate] | 89.4 nM |  | 19.5% and 29.2% and 24.4% | 29.1% | 24.1 nM and 39.7 nM and 76.3 nM and 30.2 nM | 20.3% |  |  |  |  |  |
| CC(C)OC(=O)N1CCC(Oc2cc(N3CCc4cc(S(=O)(=O)CCO)ccc43)ncn2)CC1 [Example 11, Isopropyl 4-[(6-{5-[(2-hydroxyethyl)sulfonyl]-2,3-dihydro-1H-indol-1-yl}pyrimidin-4-yl)oxy]piperidine-1-carboxylate] |  |  |  |  | 99.4 nM | 90.3% |  |  |  |  |  |
| Cc1c(O[C@H]2[C@@H]3COC[C@H]2CN(C(=O)OC2(C)CCC2)C3)ncnc1N1CCc2ncccc21 [Example 27, 1-Methylcyclobutyl (9-anti)-9-{[6-(2,3-dihydro-1H-pyrrolo[3,2-b]pyridin-1-yl)-5-methylpyrimidin-4-yl]oxy}-3-oxa-7-azabicyclo[3.3.1]nonane-7-carboxylate] | 4.02 nM and 22.9 nM and 5.81 nM and 11 nM | 64.2% and 58.1% and 51.4% | 43.5% and 30.6% and 28.4% | 63.5% | 74.5 nM and 68.9 nM and 42.7 nM and 69.8 nM | 39.1% |  |  |  |  |  |
| Cc1c(O[C@H]2[C@@H]3COC[C@H]2CN(C(=O)OC(C)C)C3)ncnc1N1CCc2ncccc21 [Example 22, Isopropyl (9-anti)-9-{[6-(2,3-dihydro-1H-pyrrolo[3,2-b]pyridin-1-yl)-5-methylpyrimidin-4-yl]oxy}-3-oxa-7-azabicyclo[3.3.1]nonane-7-carboxylate] | 40.2 nM and 33.1 nM and 74.6 nM and 41.8 nM | 70.5% and 71.2% and 60.3% | 80.4% and 66.6% and 74.1% and 55.6% | 68.8% | 116 nM and 169 nM and 137 nM and 269 nM |  |  |  |  |  |  |
| Cc1c(O[C@@H]2[C@@H]3COC[C@H]2CN(C(=O)OC(C)C)C3)ncnc1N1CCc2cc(S(C)(=O)=O)ccc21 [Example 23, Isopropyl (9-syn)-9-({5-methyl-6-[5-(methylsulfonyl)-2,3-dihydro-1H-indol-1-yl]pyrimidin-4-yl}oxy)-3-oxa-7-azabicyclo[3.3.1]nonane-7-carboxylate] |  |  | 27.9% and 29.5% and 16.7% | 51.6% |  | 26.3% |  |  |  |  |  |
| CC(C)OC(=O)N1CCC(Oc2cc(N3CCc4cc(C(=O)N(C)C)ccc43)ncn2)CC1 [Example 9, 4-[6-(5-Dimethylcarbamoyl-2,3-dihydroindol-1-yl)-pyrimidin-4-yloxy]-piperidine-1-carboxylic acid isopropyl ester] |  |  |  |  | 70.9 nM | 97.5% |  |  |  |  |  |
| Cc1c(OC2CCN(C(=O)OC(C)C)CC2)ncnc1N1CCc2cc(S(C)(=O)=O)ccc21 [Example 8, Isopropyl 4-({5-methyl-6-[5-(methylsulfonyl)-2,3-dihydro-1H-indol-1-yl]pyrimidin-4-yl}oxy)piperidine-1-carboxylate] |  |  |  |  | 43.9 nM | 53% |  |  |  |  |  |
| CCC1(OC(=O)N2C[C@H]3COC[C@@H](C2)[C@H]3Oc2ncnc(N3CCc4ncccc43)c2C)CC1 [Example 26, 1-Ethylcyclopropyl (9-anti)-9-{[6-(2,3-dihydro-1H-pyrrolo-[3,2-b]pyridin-1-yl)-5-methylpyrimidin-4-yl]oxy}-3-oxa-7-azabicyclo[3.3.1]nonane-7-carboxylate] | 23.8 nM and 18.2 nM and 21.3 nM and 26.3 nM | 82.5% and 68.9% and 73.4% | 65.1% and 67.6% and 43.6% and 50% | 68.6% | 96.9 nM and 112 nM and 91.1 nM and 163 nM |  |  |  |  |  |  |
| Cc1c(O[C@H]2CCN(C(=O)OC(C)(C)C)C[C@H]2F)ncnc1N1CCc2ncccc21 (racemic) [Example 16, tert-Butyl (3R,4S)-4-{[6-(2,3-dihydro-1H-pyrrolo[3,2-b]pyridin-1-yl)-5-methylpyrimidin-4-yl]oxy}-3-fluoropiperidine-1-carboxylate (racemic)] | 2.78 nM |  | 21.8% and 27.7% | 48.6% | 6.37 nM and 15 nM and 9.29 nM | 24.8% |  |  |  |  |  |
| CC(C)(C)OC(=O)N1CCC(Oc2cc(N3CCc4cc(S(C)(=O)=O)ccc43)ncn2)C(F)C1 (racemic) [Example 15, tert-Butyl 3-fluoro-4-({6-[5-(methylsulfonyl)-2,3-dihydro-1H-indol-1-yl]pyrimidin-4-yl}oxy)piperidine-1-carboxylate] | 0.999 nM |  | 102% and 93.5% | 77.1% | 10.3 nM and 12.9 nM and 49.5 nM | 92.5% |  |  |  |  |  |
